Consider 29 compounds from patent US20250051338A1, “TYK2 DEGRADERS AND USES THEREOF” (Kymera Therapeutics, Inc., priority 2021, published 2025).

Holding throughout (type): cell-based
Assay [1] addresses T1, TYK2 (Homo sapiens, UniProt P29597). Put plainly: TYK2 degradation MSD assay in OCI-LY10 cells. Further details: endogenous in cells; host or cells: EBV-B cells. The settings on record: 4 to 24 hours incubation, read-out: TYK2 MSD DC50 rating in OCI-LY10. The method, boiled down:
(§1)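 DC50 values reflect dose-dependent decrease of TYK2 protein, read by MSD after cells were exposed to compound (top 1 to 10 μM, 1:3, 9 doses) for 4 to 24 hours at 37° C.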

Assay [2] deals with T1, TYK2. Briefly: TYK2 degradation MSD assay in EBV-B cells. Further details: endogenous in cells; host or cells: EBV-B cells. The settings on record: 4 to 24 hours incubation, read-out: TYK2 MSD DC50 rating in EBV-B. The method, boiled down:
as §1

Assay [3] deals with T1, TYK2. Put plainly: TYK2 degradation MSD assay in human PBMC cells. Also on record: endogenous in cells; host or cells: human PBMC. The following applies: 4 to 24 hours incubation, read-out: TYK2 MSD DC50 rating in human PBMC. In outline:
as §1

T1 sequence (P29597 whole entry): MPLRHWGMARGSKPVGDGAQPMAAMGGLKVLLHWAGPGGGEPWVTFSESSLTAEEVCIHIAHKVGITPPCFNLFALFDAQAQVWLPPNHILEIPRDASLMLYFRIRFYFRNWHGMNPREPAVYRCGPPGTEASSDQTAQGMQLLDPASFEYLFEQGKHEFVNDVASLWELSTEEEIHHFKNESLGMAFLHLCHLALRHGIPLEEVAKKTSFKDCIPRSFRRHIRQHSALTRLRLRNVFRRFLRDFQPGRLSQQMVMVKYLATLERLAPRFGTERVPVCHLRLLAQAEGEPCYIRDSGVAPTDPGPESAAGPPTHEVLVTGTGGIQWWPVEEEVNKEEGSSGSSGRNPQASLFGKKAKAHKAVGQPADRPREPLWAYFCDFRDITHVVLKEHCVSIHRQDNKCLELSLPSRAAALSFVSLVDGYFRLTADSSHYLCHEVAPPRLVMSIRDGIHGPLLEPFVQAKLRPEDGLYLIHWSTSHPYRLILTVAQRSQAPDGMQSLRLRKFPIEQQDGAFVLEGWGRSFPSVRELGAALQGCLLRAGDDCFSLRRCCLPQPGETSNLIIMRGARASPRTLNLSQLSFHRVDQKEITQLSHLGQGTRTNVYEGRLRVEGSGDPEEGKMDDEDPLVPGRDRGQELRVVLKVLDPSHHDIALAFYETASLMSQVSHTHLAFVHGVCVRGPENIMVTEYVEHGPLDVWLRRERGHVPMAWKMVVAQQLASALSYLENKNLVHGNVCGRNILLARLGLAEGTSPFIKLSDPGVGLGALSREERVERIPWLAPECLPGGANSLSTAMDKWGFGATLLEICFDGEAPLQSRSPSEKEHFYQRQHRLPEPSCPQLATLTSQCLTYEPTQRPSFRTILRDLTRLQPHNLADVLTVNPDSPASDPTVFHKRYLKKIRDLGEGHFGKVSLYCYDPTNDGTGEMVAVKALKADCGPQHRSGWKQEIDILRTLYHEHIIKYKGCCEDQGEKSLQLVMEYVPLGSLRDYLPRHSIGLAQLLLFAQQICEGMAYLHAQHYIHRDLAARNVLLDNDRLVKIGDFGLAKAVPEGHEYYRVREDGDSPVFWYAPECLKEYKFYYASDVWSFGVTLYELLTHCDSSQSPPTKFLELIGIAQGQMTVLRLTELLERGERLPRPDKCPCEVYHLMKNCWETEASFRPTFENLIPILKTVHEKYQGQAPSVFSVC

As usually defined, the DC50 is the concentration giving 50% degradation. On to `CNc1cc(Nc2cccc(-c3ccc(CN4CCN(C5CCN(c6ccc7c(c6)n(C)c(=O)n7C6CCC(=O)NC6=O)CC5)CC4)cn3)c2)nn2c(C(=O)N[C@@H]3C[C@@H]3F)cnc12` (stereo partly drawn) [Example K435], for which the DC50 in assay [1] is below 1 nM; in assay [2], above 100 nM; in assay [3], above 100 nM.
Consider `CNc1cc(Nc2cccc(-c3ccc(CN4CCC(C#Cc5ccc6c(c5)n(C)c(=O)n6C5CCC(=O)NC5=O)CC4)cn3)c2)nn2c(C(=O)N[C@@H]3C[C@@H]3F)cnc12` (stereo partly drawn) [Example K436], for which the DC50 in assay [1] was below 1 nM; in assay [2], above 100 nM; in assay [3], above 100 nM.
Regarding `CNc1cc(Nc2cccn(-c3ccc(CNCc4ccc(N5CCC(N6CCC(c7ccc8c(c7)n(C)c(=O)n8C7CCC(=O)NC7=O)C6)CC5)cc4)cn3)c2=O)nn2c(C(=O)N[C@@H]3C[C@@H]3F)cnc12` (stereo partly drawn) [Example K437], the DC50 was below 1 nM in assay [1], above 100 nM in assay [2] and above 100 nM in assay [3].
Regarding `CNc1cc(Nc2cccn(-c3ccc(C(=O)N(C)CCCOC4CCN(c5ccc6c(c5)n(C)c(=O)n6C5CCC(=O)NC5=O)CC4)cn3)c2=O)nn2c(C(=O)N[C@@H]3C[C@@H]3F)cnc12` (stereo partly drawn) [Example K438], the results for the 50% degradation concentration (DC50) in assay [1], in assay [2] and in assay [3] were 1 to 10 nM, above 100 nM and above 100 nM, respectively.
For the compound `CNc1cc(Nc2cccn(-c3ccc(C(=O)N(C)C4CCN(c5ccc(-c6ccc7c(c6)n(C)c(=O)n7C6CCC(=O)NC6=O)cc5)C4)cn3)c2=O)nn2c(C(=O)N[C@@H]3C[C@@H]3F)cnc12` (stereo partly drawn) [Example K439], the DC50 in assay [1] was below 1 nM; in assay [2], above 100 nM; in assay [3], above 100 nM.
As for `CNc1cc(Nc2cccn(-c3ccc(C(=O)N4CCN(CCOc5cccc(-c6ccc7c(c6)n(C)c(=O)n7C6CCC(=O)NC6=O)c5)CC4)cn3)c2=O)nn2c(C(=O)N[C@@H]3C[C@@H]3F)cnc12` (stereo partly drawn) [Example K440], the DC50 is below 1 nM in assay [1], above 100 nM in assay [2] and above 100 nM in assay [3].
As for `CNc1cc(Nc2cccn(-c3ccc(C(=O)N4CCC5(CCN(c6ncc(C#Cc7ccc8c(c7)n(C)c(=O)n8C7CCC(=O)NC7=O)cn6)C5=O)C4)cn3)c2=O)nn2c(C(=O)N[C@@H]3C[C@@H]3F)cnc12` (stereo partly drawn) [Example K441], the DC50 was below 1 nM in assay [1], above 100 nM in assay [2] and above 100 nM in assay [3].
For `CNc1cc(Nc2cccn(-c3ccc(C(=O)N4CCC(OC5CC(c6cccc7c6n(C)c(=O)n7C6CCC(=O)NC6=O)C5)CC4)cn3)c2=O)nn2c(C(=O)N[C@@H]3C[C@@H]3F)cnc12` (stereo partly drawn) [Example K442], the DC50 was below 1 nM in assay [1], above 100 nM in assay [2] and above 100 nM in assay [3].
As to `CNc1cc(Nc2cccn(-c3ccc(C(=O)NC4CCC(C(=O)N5CCC6(CN(CC#Cc7ccc8c(c7)n(C)c(=O)n8C7CCC(=O)NC7=O)C6)C5)CC4)cn3)c2=O)nn2c(C(=O)N[C@@H]3C[C@@H]3F)cnc12` (stereo partly drawn) [Example K444], the DC50 in assay [1], in assay [2] and in assay [3] was 1 to 10 nM in each case.
Consider `CNc1cc(Nc2cccn(-c3ccc(C(=O)N4CCC(CN(C)C5CCN(c6ccc7c(c6)n(C)c(=O)n7C6CCC(=O)NC6=O)CC5)C4)cn3)c2=O)nn2c(C(=O)N[C@@H]3C[C@@H]3F)cnc12` (stereo partly drawn) [Example K445], for which the DC50 in assay [1] was below 1 nM; in assay [2], above 100 nM; in assay [3] it was above 100 nM.
Regarding `CNc1cc(Nc2cccn(-c3ccc(C(=O)N4CCC(N(C)CC5CCN(c6ccc(-c7ccc8c(c7)n(C)c(=O)n8C7CCC(=O)NC7=O)cc6)C5)CC4)cn3)c2=O)nn2c(C(=O)N[C@@H]3C[C@@H]3F)cnc12` (stereo partly drawn) [Example K446], the DC50 in assay [1] is below 1 nM; in assay [2] it was above 100 nM; in assay [3], above 100 nM.
`CNc1cc(Nc2cccn(-c3ccc(C(=O)NC4CCC(CN(C)CC5CCN(Cc6ccc7c(c6)n(C)c(=O)n7C6CCC(=O)NC6=O)CC5)CC4)cn3)c2=O)nn2c(C(=O)N[C@@H]3C[C@@H]3F)cnc12` (stereo partly drawn) [Example K447]: the DC50 in assay [1] is below 1 nM; in assay [2], above 100 nM; in assay [3], above 100 nM.
For the compound `CNc1cc(Nc2cccn(-c3ccc(C(=O)N[C@H]4CC[C@H](CN(C)C5CCN(Cc6cccc7c6n(C)c(=O)n7C6CCC(=O)NC6=O)CC5)CC4)cn3)c2=O)nn2c(C(=O)N[C@@H]3C[C@@H]3F)cnc12` (stereo partly drawn) [Example K449], the DC50 is below 1 nM in assay [1], above 100 nM in assay [2] and above 100 nM in assay [3].
For `CNc1cc(Nc2cccn(-c3ccc(C(=O)N4CC(CN5CCC(c6cccc7c6n(C)c(=O)n7C6CCC(=O)NC6=O)CC5)C4)cn3)c2=O)nn2c(C(=O)N[C@@H]3C[C@@H]3F)cnc12` (stereo partly drawn) [Example K450], the figures for the DC50 in assay [1], in assay [2] and in assay [3] were below 1 nM, above 100 nM and above 100 nM, respectively.
As for `CNc1cc(Nc2cccn(-c3ccc(C(=O)N4CCC(CN5CCCC(c6cccc7c6n(C)c(=O)n7C6CCC(=O)NC6=O)C5)CC4)cn3)c2=O)nn2c(C(=O)N[C@@H]3C[C@@H]3F)cnc12` (stereo partly drawn) [Example K451], the DC50 in assay [1] was below 1 nM; in assay [2], above 100 nM; in assay [3], above 100 nM.
`Cn1c(=O)n(C2CCC(=O)NC2=O)c2cccc(N3CCC4(CC3)CN(Cc3ccc(-c5cccc(Nc6ccc7ncc(C(=O)NC8CC8)n7n6)c5)nc3)C4)c21` (stereo not drawn) [Example K452]: the DC50 in assay [1], in assay [2] and in assay [3] was above 100 nM each time.
In the case of `CNc1cc(Nc2cccn(-c3ccc(C(=O)N4CCC(N5CCC(N6CCN(c7ccc8c(c7)n(C)c(=O)n8C7CCC(=O)NC7=O)CC6)CC5)CC4)cn3)c2=O)nn2c(C(=O)N[C@@H]3C[C@@H]3F)cnc12` (stereo partly drawn) [Example K453], the results for the DC50 in assay [1], in assay [2] and in assay [3] were below 1 nM, below 1 nM and above 100 nM, respectively.
As to `CNc1cc(Nc2cccn(-c3ccc(CN4CCN([C@H]5CC[C@H](c6ccc(-c7ccc8c(c7)n(C)c(=O)n8C7CCC(=O)NC7=O)cc6)CC5)CC4)cn3)c2=O)nn2c(C(=O)N[C@@H]3C[C@@H]3F)cnc12` (stereo partly drawn) [Example K454], the DC50 in assay [1] is below 1 nM; in assay [2], below 1 nM; in assay [3], above 100 nM.
Turning to `CNc1cc(Nc2cccc(-c3ccc(CN4CCN(c5ccc(-c6ccc7c(c6)n(C)c(=O)n7C6CCC(=O)NC6=O)cn5)C(=O)C4)cn3)c2)nn2c(C(=O)N[C@@H]3C[C@@H]3F)cnc12` (stereo partly drawn) [Example K455], the values for the DC50 in assay [1], in assay [2] and in assay [3] were below 1 nM, below 1 nM and above 100 nM, respectively.
`Cn1c(=O)n(C2CCC(=O)NC2=O)c2ccc(-c3ccc(N4CCN(Cc5ccc(-c6cccc(Oc7ccc8ncc(C(=O)NC9CC9)n8n7)c6)nc5)CC4)cc3)cc21` (stereo not drawn) [Example K456]: the DC50 in assay [1], in assay [2] and in assay [3] was above 100 nM throughout.
As to `CNc1cc(Nc2cccn(-c3ccc(CN4CCN(c5ccc(-c6ccc7c(c6)n(C)c(=O)n7C6CCC(=O)NC6=O)cn5)C(=O)C4)cn3)c2=O)nn2c(C(=O)N[C@@H]3C[C@@H]3F)cnc12` (stereo partly drawn) [Example K457], the DC50 in assay [1] is below 1 nM; in assay [2] it was above 100 nM; in assay [3], above 100 nM.
Regarding `Cn1c(=O)n(C2CCC(=O)NC2=O)c2ccc(-c3ccc(N4CCN(Cc5ccc(-c6cccc(Nc7ccc8ncc(C(=O)NC9CC9)n8n7)c6)nc5)CC4=O)nc3)cc21` (stereo not drawn) [Example K459], the DC50 in assay [1], in assay [2] and in assay [3] was above 100 nM in each case.
Regarding `CNc1cc(Nc2cccc(-c3ccc(CN4CCN(c5cccc6c5n(C)c(=O)n6C5CCC(=O)NC5=O)CC4)cn3)c2)nn2c(C(=O)N[C@@H]3C[C@@H]3F)cnc12` (stereo partly drawn) [Example K460], the DC50 was below 1 nM in assay [1], above 100 nM in assay [2] and above 100 nM in assay [3].
Take `CNc1cc(Nc2cccc(-c3ccc(CNCc4ccc(N5CCC(N6CCC(c7ccc8c(c7)n(C)c(=O)n8C7CCC(=O)NC7=O)C6)CC5)cc4)cn3)c2)nn2c(C(=O)N[C@@H]3C[C@@H]3F)cnc12` (stereo partly drawn) [Example K461]: the DC50 in assay [1] was 1 to 10 nM; in assay [2], above 100 nM; in assay [3], above 100 nM.
For the compound `CNc1cc(Nc2cccn(-c3ccc(C(=O)N4CCC(N5CCC(N6CCN(c7cccc8c7n(C)c(=O)n8C7CCC(=O)NC7=O)CC6)CC5)CC4)cn3)c2=O)nn2c(C(=O)N[C@@H]3C[C@@H]3F)cnc12` (stereo partly drawn) [Example K462], the DC50 in assay [1] is 1 to 10 nM; in assay [2], above 100 nM; in assay [3] it was above 100 nM.
Take `CNc1cc(Nc2cccc(-c3ccc(CN4CCN(C5CCC(c6ccc(-c7ccc8c(c7)n(C)c(=O)n8C7CCC(=O)NC7=O)cc6)CC5)CC4)cn3)c2)nn2c(C(=O)N[C@@H]3C[C@@H]3F)cnc12` (stereo partly drawn) [Example K463]: the figures for the DC50 in assay [1], in assay [2] and in assay [3] were 1 to 10 nM, above 100 nM and above 100 nM, respectively.
For `CNc1cc(Nc2cccc(-c3ccc(CN4CC5(CCN(c6cccc7c6n(C)c(=O)n7C6CCC(=O)NC6=O)CC5)C4)cn3)c2)nn2c(C(=O)N[C@@H]3C[C@@H]3F)cnc12` (stereo partly drawn) [Example K464], the DC50 in assay [1] is 1 to 10 nM; in assay [2] it was above 100 nM; in assay [3] it was above 100 nM.
Consider `CNc1cc(Nc2cccc(N3CCC(CN4CCC(C#Cc5cccc6c5n(C)c(=O)n6C5CCC(=O)NC5=O)CC4)CC3)c2)nn2c(C(=O)N[C@@H]3C[C@@H]3F)cnc12` (stereo partly drawn) [Example K465], for which the DC50 in assay [1] was 1 to 10 nM; in assay [2], above 100 nM; in assay [3], above 100 nM.
Regarding `CNc1cc(Nc2cccc(N3CCN(CC4CCN(c5ccc(-c6ccc7c(c6)n(C)c(=O)n7C6CCC(=O)NC6=O)cc5)CC4)CC3)c2)nn2c(C(=O)N[C@@H]3C[C@@H]3F)cnc12` (stereo partly drawn) [Example K466], the results for the DC50 in assay [1], in assay [2] and in assay [3] were above 100 nM, below 1 nM and above 100 nM, respectively.
